Experimental data taken from paper PMC10983001, “Development of Cytotoxic GW7604-Zeise’s Salt Conjugates as Multitarget Compounds with Selectivity for Estrogen Receptor- Positive Tumor Cells” (Journal of Medicinal Chemistry, 2024).
Where two headings read alike, the source gives them in different places.

Assays:
MCF-7 cells [1] = experiment: MTT assay of metabolic activity, MCF-7; type: cell-based, human; conditions: 72 h, MTT, read-out: IC50 MCF-7
Protocol: (§1) The GW7604-Alk-PtCl3 complexes (with exclusion of GW7604-Prop-PtCl3) were investigated for cytotoxic effects in SKBr3 (ER-negative, COX-2-positive, Figure 6), MCF-7 (ERα-positive, COX-negative, Figure 6), and noncancerous TSA-201 (human embryonal kidney) cells at concentrations of 10–30 μM using an established MTT (3-(4,5-dimethylthiazol-2-yl)-2,5-diphenyltetrazolium bromide) assay.[60],[69]
(§2) After incubation for 72 h, the amounts of surviving, metabolically active cells were quantified based on their ability to transform the water-soluble yellow dye MTT to a purple formazan, which can be analyzed by UV–vis spectroscopy.
(§3) The exponentially growing cells were seeded at a density of 1750 (MCF-7), 2000 (SKBr3), and 1250 (TSA-201) cells/well into clear flat-bottom 96-well plates in triplicate. Following 24 h of incubation at 37 °C in a humidified atmosphere (5% CO2/95% air), the compounds [freshly prepared stock solutions in DMF, diluted with DMEM to the desired concentration (final DMF concentration of 0.1% (v/v))] were added to reach the indicated concentrations. After another 72 h of incubation, the cellular metabolic activity was measured employing an MTT assay. By adding predissolved MTT reagent in PBS at a final concentration of 0.5 mg/mL, the metabolic activity can be determined via an enzymatic conversion to a purple formazan salt. After 3 h, the medium was aspirated, and 200 μL of DMSO was added to dissolve the formed formazan crystals. The absorbance was measured at 570 and 690 nm (turbidity assessment) using an EnSpire plate reader (PerkinElmer, Waltham, MA, USA). Solvent-treated cells without a compound served as the positive control. Metabolic activity was calculated by the following equation [drawing 1]

nuclei of MCF-7 cells = experiment: Nuclear uptake (platinum by HR-CS-AAS), MCF-7; type: cell-based, human; conditions: MCF-7, 20 μM, 24 h; pmol complex/mg protein
Protocol: (§4) Fluorescence in the nuclei is not detectable. Therefore, the nuclei were analyzed for their platinum content using HR-CS-AAS.[25]
(§5) After thawing of the cell/nuclei pellets, they were resuspended in ultrapure water (Siemens LaboStar, Günzburg, Germany; 300 μL) and lyzed with a sonotrode (Bandelin Sonoplus, Berlin, Germany; parameters 20 s, 9 cycles, 80% power). Graphite furnace (GF) AAS was used to quantify the lysates concerning their content of platinum (λ = 265.9450 nm). For this purpose, a contrAA 700 High-Resolution-Continous Source AAS (Analytik Jena, Jena, Germany) was employed, while atomization took place by electrothermal heating of graphite tubes with an inserted platform (Analytik Jena, Jena, Germany). […] The spectrometer was monitored with the ASpect CS software, version 2.3.1.0 (Analytik Jena, Jena, Germany). For all runs, the mean integrated absorbance was determined after three injections of each standard or sample. […] Each cell/nuclei lysate was quantified concerning its protein content following the method of Bradford[71] in order to express the uptake as the amount of compound (pmol) in the lysate relative to its protein mass (mg). […] All standards and lysates were measured in duplicate. After incubating for 5 min at rt, the absorbance (λ = 595 nm) was read on a microplate reader (Tecan Safire 2, Männedorf, Switzerland). […]

SKBr3 cells [2] = experiment: MTT assay of metabolic activity, SKBr3; type: cell-based, human; conditions: 72 h; for IC50: MTT
Protocol: as §1, §2, §3

SKBr3 cells [3] = experiment: Cellular uptake (platinum by HR-CS-AAS), SKBr3; type: cell-based, human; conditions: 8 h
Protocol: (§6) In order to reach the DNA, the complexes must first pass through the cell membrane and penetrate into the nuclei. Therefore, the cellular uptake kinetics of GW7604-Alk-PtCl3 complexes were studied using the example of GW7604-Pent-PtCl3. This complex and Cisplatin, respectively, were incubated at a concentration of 20 μM with MCF-7 or SKBr3 cells. After various time points [i.e., 0 (3 min), 0.5, 1, 2, 4, and 8 h], cell pellets were prepared, and the platinum content was quantified by high-resolution continuum source atomic absorption spectrometry (HR-CS-AAS).[52]
After thawing of the cell/nuclei pellets, they were resuspended in ultrapure water (Siemens LaboStar, Günzburg, Germany; 300 μL) and lyzed with a sonotrode (Bandelin Sonoplus, Berlin, Germany; parameters 20 s, 9 cycles, 80% power). Graphite furnace (GF) AAS was used to quantify the lysates concerning their content of platinum (λ = 265.9450 nm). For this purpose, a contrAA 700 High-Resolution-Continous Source AAS (Analytik Jena, Jena, Germany) was employed, while atomization took place by electrothermal heating of graphite tubes with an inserted platform (Analytik Jena, Jena, Germany). A time–temperature program reported in the literature[25] was followed with minor adjustments. The liquid samples kept in 0.5 mL polystyrene vials (Gesellschaft für Analysentechnik, Salzwedel, Germany) were injected directly into the pyrolytically coated tubes using an MPE 60 autosampler (Analytik Jena, Jena, Germany). Throughout the measurements, argon (Alphagaz 1, 99.999%, Air Liquide, Düsseldorf, Germany) served as the purge and protective gas. The spectrometer was monitored with the ASpect CS software, version 2.3.1.0 (Analytik Jena, Jena, Germany). For all runs, the mean integrated absorbance was determined after three injections of each standard or sample. Calibration was performed by an appropriate dilution of a solution of Cisplatin (Sigma-Aldrich, Taufkirchen, Germany) obtaining five standards (2–10 μg/L, R^2 ≥ 0.982). Each cell/nuclei lysate was quantified concerning its protein content following the method of Bradford[71] in order to express the uptake as the amount of compound (pmol) in the lysate relative to its protein mass (mg). Therefore, solutions of Albumin fraction V (Carl Roth, Karlsruhe, Germany) diluted with ultrapure water were adduced for the calibration (six standards, 50–300 μg/mL, R^2 ≥ 0.996). […] All standards and lysates were measured in duplicate. After incubating for 5 min at rt, the absorbance (λ = 595 nm) was read on a microplate reader (Tecan Safire 2, Männedorf, Switzerland). […]

nuclei of SKBr3 cells = experiment: Nuclear uptake (platinum by HR-CS-AAS), SKBr3; type: cell-based, human; conditions: SKBr3, 20 μM, 24 h
Protocol: as §4, §5

MCF-7 cells [4] = experiment: Comet assay; type: cell-based, human; conditions: MCF-7, 15 μM, 48 h
Protocol: The comet assay (Figure 10), however, documents different consequences of DNA binding. […] The picture (Figure 10C) is very similar to that of the solvent control (Figure 10A).
MCF-7 cells were seeded at a density of 1.0 × 10^6 cells into a 25 cm^2 flask, followed by 24 h of incubation in a humidified atmosphere (5% CO2/95% air) at 37 °C. […] Cells were incubated with the compounds for 48 h. The assay was performed according to the manufacturer’s protocol (Comet assay kit, Abcam, Cambridge, UK). Briefly, after lysis and application to the microscopy slides, electrophoresis was run in an alkaline buffer for 20 min at 2 V/cm. Subsequently, slides were washed with pure deionized water and EtOH/water [7/3 (v/v)], and stained with Vista Green DNA Dye. Visualization was carried out by real-time live confocal microscopy using an inverted microscope (Zeiss Observer Z1) in arrangement with a spinning disc confocal system (UltraVIEW VoX).

MCF-7 cells [5] = experiment: Cellular uptake (platinum by HR-CS-AAS), MCF-7; type: cell-based, human; conditions: MCF-7, 20 μM, 8 h
Protocol: as §6
After thawing of the cell/nuclei pellets, they were resuspended in ultrapure water (Siemens LaboStar, Günzburg, Germany; 300 μL) and lyzed with a sonotrode (Bandelin Sonoplus, Berlin, Germany; parameters 20 s, 9 cycles, 80% power). Graphite furnace (GF) AAS was used to quantify the lysates concerning their content of platinum (λ = 265.9450 nm). For this purpose, a contrAA 700 High-Resolution-Continous Source AAS (Analytik Jena, Jena, Germany) was employed, while atomization took place by electrothermal heating of graphite tubes with an inserted platform (Analytik Jena, Jena, Germany). A time–temperature program reported in the literature[25] was followed with minor adjustments. The liquid samples kept in 0.5 mL polystyrene vials (Gesellschaft für Analysentechnik, Salzwedel, Germany) were injected directly into the pyrolytically coated tubes using an MPE 60 autosampler (Analytik Jena, Jena, Germany). Throughout the measurements, argon (Alphagaz 1, 99.999%, Air Liquide, Düsseldorf, Germany) served as the purge and protective gas. The spectrometer was monitored with the ASpect CS software, version 2.3.1.0 (Analytik Jena, Jena, Germany). For all runs, the mean integrated absorbance was determined after three injections of each standard or sample. Calibration was performed by an appropriate dilution of a solution of Cisplatin (Sigma-Aldrich, Taufkirchen, Germany) obtaining five standards (2–10 μg/L, R^2 ≥ 0.982). Each cell/nuclei lysate was quantified concerning its protein content following the method of Bradford[71] in order to express the uptake as the amount of compound (pmol) in the lysate relative to its protein mass (mg). Therefore, solutions of Albumin fraction V (Carl Roth, Karlsruhe, Germany) diluted with ultrapure water were adduced for the calibration (six standards, 50–300 μg/mL, R^2 ≥ 0.996). A volume of 20 μL of the Albumin standards or the lysates was added to a 96-well plate (Sarstedt, Nürmbrecht, Germany) and supplemented with 200 μL of Bradford’s reagent (Roti-Nanoquant, Carl Roth, Karlsruhe, Germany; diluted 5-fold with ultrapure water). All standards and lysates were measured in duplicate. After incubating for 5 min at rt, the absorbance (λ = 595 nm) was read on a microplate reader (Tecan Safire 2, Männedorf, Switzerland). The cellular/nuclear uptake (pmol complex/mg protein) is given as the mean ± SD of 2 independent experiments.
For cellular uptake studies, 1.0 × 10^6 of MCF-7 and SKBr3 cells in their exponential growing phase were seeded into 25 cm^2 cell culture flasks and incubated for 24 h under a humidified atmosphere (5% CO2/95% air) at 37 °C. Stock solutions of the platinum complexes (GW7604-Pent-PtCl3, Cisplatin) in DMF were freshly prepared and diluted with complete DMEM containing 10% FCS to the desired concentration [final DMF concentration of 0.1% (v/v), final complex concentration of 20 μM]. The medium in the cell culture flasks was replaced with 3 mL of fresh cell culture medium containing the compounds, and the flasks were incubated under a humidified atmosphere at 37 °C for 3 min, 0.5, 1, 2, 4, and 8 h. Cell pellets were prepared by removing the medium, washing two times with phosphate-buffered saline (PBS), and detaching the cells with Accutase (GE Healthcare, BioSciences, Chicago, IL, USA). Subsequently, cells were pelleted by centrifugation (4 °C, 380g, 3 min). […]

TSA-201 cells = experiment: MTT assay of metabolic activity, noncancerous TSA-201; type: cell-based, human; conditions: 72 h; for IC50: MTT, read-out: IC50 TSA-210
Protocol: as §1, §2, §3

Water solubility = type: physicochemical

Question: Which IC50 (MCF-7 cells [1]; Homo sapiens, MCF7) does the source give for `C=CCOC(=O)/C=C/c1ccc(C(=C(CC)c2ccccc2)c2ccc(O)cc2)cc1` (mixture of isomers) [GW7604-Prop, Prop-2-en-1-yl (E)-3-(4-((E/Z)-1-(4-hydroxyphenyl)-2-phenylbut-1-en-1-yl)phenyl) Acrylate] here?
Answer: 20 to 30 µM

Question: Which “platinum content in the nuclei” value (nuclei of MCF-7 cells) does the source give for `N.N.[Cl][Pt][Cl]` [Cisplatin, cis-diamminedichloridoplatinum(II), reference compound] here?
Answer: 172 pmol/mg

Question: And the “reduction of metabolic activity” value (SKBr3 cells [2]; SKBr3, 20 μM)?
Answer: 88%

Question: What about the “accumulation in SKBr3 relative to MCF-7 cells” value (SKBr3 cells [3]; 20 μM) of the same molecule?
Answer: 15 fold

Question: What about the intracellular platinum amount (SKBr3 cells [3]; SKBr3, 20 μM) of the same molecule?
Answer: 995 pmol/mg

Question: What about the “platinum content in the nuclei” value (nuclei of SKBr3 cells) of the same molecule?
Answer: 652 pmol/mg

Question: And the IC50 (MCF-7 cells [1])?
Answer: 15 µM

Question: What about the “comet tails (DNA cross-links)” value (MCF-7 cells [4]) of the same molecule?
Answer: visible as comet tails

Question: And the intracellular platinum amount (MCF-7 cells [5])?
Answer: 319 pmol/mg

Question: Which IC50 (SKBr3 cells [2]) does the source give for “Potassium trichlorido[η^2-(but-3-en-1-yl (E)-3-(4-((E/Z)-1-(4-hydroxyphenyl)-2-phenylbut-1-en-1-yl)phenyl)acrylate)]platinate(II) [GW7604-But-PtCl3]” here?
Answer: > 30 µM

Question: What about the IC50 (MCF-7 cells [1]) of the same molecule?
Answer: 20.4 µM

Question: And the IC50 (TSA-201 cells)?
Answer: > 30 µM

Question: And the “decrease of cell viability” value (TSA-201 cells; TSA-201, 30 μM)?
Answer: about 20%

Question: Which IC50 (SKBr3 cells [2]) does the source give for “Potassium trichlorido[η^2-(hex-5-en-1-yl (E)-3-(4-((E/Z)-1-(4-hydroxyphenyl)-2-phenylbut-1-en-1-yl)phenyl)acrylate)]platinate(II) [GW7604-Hex-PtCl3]” here?
Answer: > 30 µM

Question: And the IC50 (MCF-7 cells [1])?
Answer: 20.5 µM

Question: And the IC50 (TSA-201 cells)?
Answer: > 30 µM

Question: For “Potassium trichlorido[η^2-(prop-2-en-1-yl (E)-3-(4-((E/Z)-1-(4-hydroxyphenyl)-2-phenylbut-1-en-1-yl)phenyl)acrylate)]platinate(II) [GW7604-Prop-PtCl3]”, which water solubility (Water solubility) is on record?
Answer: does not have sufficient water solubility
